# Results taken from ChEMBL document CHEMBL1201862, “PubChem BioAssay data set” (2004).
# Calls of active or inactive are those of the source.
# How the values were obtained:
# [1] = biological target: T1, Bcl-2-like protein 10 (Homo sapiens, UniProt Q9HD36); test: Bcl-B/TR3 peptide binding disruption – biochemical, fluorescence polarization, FITC-TR3 peptide, selectivity assay for Bfl-1 inhibitor project, primary screen (AID 748);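 also: fluorescence polarization from a fluorescein-labelled TR3 peptide binding purified Bcl-B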
# T1 sequence (Q9HD36 whole entry): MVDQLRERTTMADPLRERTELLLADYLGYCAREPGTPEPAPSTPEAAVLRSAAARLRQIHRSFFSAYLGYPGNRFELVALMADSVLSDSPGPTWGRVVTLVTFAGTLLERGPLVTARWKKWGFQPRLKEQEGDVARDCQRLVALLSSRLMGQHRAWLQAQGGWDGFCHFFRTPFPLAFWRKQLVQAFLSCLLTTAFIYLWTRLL
# [2] = biological target: Large T antigen (Simian virus 40, UniProt P03070); assay type: functional, Betapolyomavirus macacae;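 also: Confirmatory-stage PubChem screen for compounds that inhibit SV40 T antigen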
# [3] = biological target: Nucleotide-binding oligomerization domain-containing protein 2 (Homo sapiens, UniProt Q9HC29); test: PubChem AID 2334; assay type: functional
# [4] = biological target: T2, Nucleotide-binding oligomerization domain-containing protein 1 (Homo sapiens, UniProt Q9Y239); test: blockers of NOD1 pathway activity – revised, SAR follow-up (AID 2333); assay type: functional
# T2 sequence (Q9Y239 whole entry): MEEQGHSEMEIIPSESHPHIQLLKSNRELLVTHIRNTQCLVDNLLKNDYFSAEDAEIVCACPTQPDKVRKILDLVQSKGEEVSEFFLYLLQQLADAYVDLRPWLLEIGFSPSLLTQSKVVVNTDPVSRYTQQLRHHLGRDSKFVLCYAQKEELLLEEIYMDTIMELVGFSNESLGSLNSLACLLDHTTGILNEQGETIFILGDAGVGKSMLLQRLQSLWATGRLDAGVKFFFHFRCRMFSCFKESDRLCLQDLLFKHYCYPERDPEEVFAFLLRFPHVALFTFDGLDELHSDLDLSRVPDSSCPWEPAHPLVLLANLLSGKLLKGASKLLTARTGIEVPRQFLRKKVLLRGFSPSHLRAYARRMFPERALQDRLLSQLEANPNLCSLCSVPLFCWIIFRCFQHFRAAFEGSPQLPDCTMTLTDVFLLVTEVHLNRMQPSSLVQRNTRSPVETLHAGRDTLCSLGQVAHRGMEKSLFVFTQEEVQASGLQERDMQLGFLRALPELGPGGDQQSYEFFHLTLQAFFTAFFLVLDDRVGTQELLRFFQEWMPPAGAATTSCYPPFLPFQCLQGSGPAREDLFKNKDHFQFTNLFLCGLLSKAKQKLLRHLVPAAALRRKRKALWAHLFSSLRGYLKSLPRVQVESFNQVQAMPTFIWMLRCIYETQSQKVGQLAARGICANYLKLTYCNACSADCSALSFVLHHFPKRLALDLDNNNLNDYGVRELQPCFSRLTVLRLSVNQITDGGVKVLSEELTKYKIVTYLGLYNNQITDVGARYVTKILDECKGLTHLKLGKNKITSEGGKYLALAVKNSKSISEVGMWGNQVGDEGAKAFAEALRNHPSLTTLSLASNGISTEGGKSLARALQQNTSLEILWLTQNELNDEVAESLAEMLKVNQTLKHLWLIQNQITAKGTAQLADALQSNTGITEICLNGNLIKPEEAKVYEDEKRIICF
# [5] = biological target: Tumor necrosis factor (Homo sapiens, UniProt P01375); test: analog potency on TNFa NF-kB signaling – cell-based, revised, SAR follow-up (AID 2337); assay type: functional
# [6] = tested on: HEK293; test: cells; settings: Homo sapiens;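 also: cells exposed to compound for 14 hours overnight before viability readout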
# [7] = biological target: Genome polyprotein (dengue virus type 2, UniProt P29990); test: flavivirus cap methylation enzyme inhibition – biochemical, confirmation dose response, primary screen (AID 588689); assay type: functional
# [8] = biological target: Beta-galactosidase (Escherichia coli, UniProt Q8VNN2); test: detection-enzyme interference by beta-gal modulators – biochemical, E. coli enzyme, set 3, artefact control for CCR6 antagonist project, dose response (AID 504712); assay type: functional
# [9] = biological target: T3, Carboxy-terminal domain RNA polymerase II polypeptide A small phosphatase 1 (Homo sapiens, UniProt Q9GZU7); test: CTDSP1 inhibitors, concentration-response, biochemical, absorbance readout, ultra-high-throughput screen actives (AID 540297); assay type: functional
# T3 sequence (Q9GZU7 whole entry): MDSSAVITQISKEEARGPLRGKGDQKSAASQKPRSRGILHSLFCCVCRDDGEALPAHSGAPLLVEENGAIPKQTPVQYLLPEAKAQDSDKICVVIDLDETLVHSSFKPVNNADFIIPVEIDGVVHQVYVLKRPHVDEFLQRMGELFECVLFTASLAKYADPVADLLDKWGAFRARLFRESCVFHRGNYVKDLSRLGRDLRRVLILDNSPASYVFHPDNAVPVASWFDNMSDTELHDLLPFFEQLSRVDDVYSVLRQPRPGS
# [10] = Vero E6 cell cytotoxicity, dose response, cytotoxicity control for non-replicating M. tuberculosis project, secondary assay (AID 492998); assay type: functional, VeroE6; settings: Vero C1008
# [11] = THP-1 cell cytotoxicity, dose response, cytotoxicity control for non-replicating M. tuberculosis project (AID 489025); assay type: functional
# [12] = cells; assay type: functional
# [13] = biological target: T4, RNA-binding protein pos-1 (Caenorhabditis elegans, UniProt G5EF15); test: disruptors of C. elegans POS-1 RNA interaction – biochemical, fluorescence polarization, dose response (AID 1964);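 also: purified POS-1 fused to maltose binding protein made in E. coli; potency of compounds blocking POS-1 binding to fluorescent RNA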
# T4 sequence (G5EF15 whole entry): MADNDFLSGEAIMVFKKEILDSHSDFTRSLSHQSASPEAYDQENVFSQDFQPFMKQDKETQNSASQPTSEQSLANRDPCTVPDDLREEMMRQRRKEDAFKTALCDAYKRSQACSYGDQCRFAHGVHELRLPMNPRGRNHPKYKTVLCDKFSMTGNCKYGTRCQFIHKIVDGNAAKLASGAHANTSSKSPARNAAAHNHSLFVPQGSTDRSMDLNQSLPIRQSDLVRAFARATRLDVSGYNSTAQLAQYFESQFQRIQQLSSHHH
# [14] = HepG2 cell cytotoxicity, dose response, cytotoxicity control for non-replicating M. tuberculosis project (AID 489018); assay type: functional; settings: Mycobacterium tuberculosis
# [15] = biological target: T5, Zinc finger protein mex-5 (Caenorhabditis elegans, UniProt Q9XUB2); test: potency of MEX-5 RNA-binding blockers – biochemical, C. elegans, fluorescence polarization, dose response (AID 1960)
# T5 sequence (Q9XUB2 whole entry): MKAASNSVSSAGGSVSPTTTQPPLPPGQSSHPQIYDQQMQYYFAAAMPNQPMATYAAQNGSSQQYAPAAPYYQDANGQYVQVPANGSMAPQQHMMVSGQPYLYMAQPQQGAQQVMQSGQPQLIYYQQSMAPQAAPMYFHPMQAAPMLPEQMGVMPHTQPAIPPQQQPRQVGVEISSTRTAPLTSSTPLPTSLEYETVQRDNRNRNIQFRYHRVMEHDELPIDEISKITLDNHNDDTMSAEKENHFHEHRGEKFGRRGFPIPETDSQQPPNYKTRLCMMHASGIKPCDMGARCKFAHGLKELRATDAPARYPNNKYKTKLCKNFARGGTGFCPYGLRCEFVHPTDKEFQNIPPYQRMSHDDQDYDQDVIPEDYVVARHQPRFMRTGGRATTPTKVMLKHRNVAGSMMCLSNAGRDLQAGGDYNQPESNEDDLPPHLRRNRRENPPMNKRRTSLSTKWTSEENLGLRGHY
# [16] = biological target: T6, X-box-binding protein 1 (Homo sapiens, UniProt P17861); assay type: functional, Cricetulus griseus;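 also: confirmatory dose-response counter-screen serving a CHOP assay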
# T6 sequence (P17861 whole entry): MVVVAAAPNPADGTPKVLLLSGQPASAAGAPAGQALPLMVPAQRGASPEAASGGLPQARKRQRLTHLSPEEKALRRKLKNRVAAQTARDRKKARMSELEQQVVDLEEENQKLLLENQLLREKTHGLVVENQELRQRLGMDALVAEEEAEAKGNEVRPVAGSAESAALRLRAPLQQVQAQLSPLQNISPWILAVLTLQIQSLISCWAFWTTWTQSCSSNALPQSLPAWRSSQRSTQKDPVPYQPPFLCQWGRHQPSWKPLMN
# [17] = biological target: T7, Protein skinhead-1 (Caenorhabditis elegans, UniProt P34707); assay type: functional
# T7 sequence (P34707 whole entry): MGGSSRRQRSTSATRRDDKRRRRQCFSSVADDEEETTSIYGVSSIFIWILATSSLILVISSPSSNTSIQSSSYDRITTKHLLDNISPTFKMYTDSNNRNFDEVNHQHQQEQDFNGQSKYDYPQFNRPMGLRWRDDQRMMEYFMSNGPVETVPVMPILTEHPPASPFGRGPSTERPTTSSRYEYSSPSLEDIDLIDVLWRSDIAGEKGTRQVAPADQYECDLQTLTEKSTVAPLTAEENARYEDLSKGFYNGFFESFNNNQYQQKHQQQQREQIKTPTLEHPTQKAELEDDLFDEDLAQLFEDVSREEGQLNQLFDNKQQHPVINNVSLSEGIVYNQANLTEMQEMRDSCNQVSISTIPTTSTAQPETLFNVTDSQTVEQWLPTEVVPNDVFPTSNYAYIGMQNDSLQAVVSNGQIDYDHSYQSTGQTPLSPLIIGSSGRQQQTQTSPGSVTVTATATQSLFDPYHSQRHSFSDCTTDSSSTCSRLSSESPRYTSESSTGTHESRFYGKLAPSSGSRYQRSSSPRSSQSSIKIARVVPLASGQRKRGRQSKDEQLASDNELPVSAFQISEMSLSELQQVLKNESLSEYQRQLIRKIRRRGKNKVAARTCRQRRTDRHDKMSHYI
# [18] = fluconazole-exposed Candida albicans growth modulators – fluorescence, retest, confirmation (AID 2467); assay type: functional, cell-based
# [19] = NIH-3T3 fibroblast cytotoxicity, dose response, cytotoxicity control, cell-based, fluorescence, Alamar Blue, secondary assay (AID 2327); assay type: functional;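 also: NIH-3T3 mouse fibroblasts cultured with fluconazole at 8 µg/mL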
# Sequence of Nucleotide-binding oligomerization domain-containing protein 2 (Q9HC29 whole entry, the tested form may be a part): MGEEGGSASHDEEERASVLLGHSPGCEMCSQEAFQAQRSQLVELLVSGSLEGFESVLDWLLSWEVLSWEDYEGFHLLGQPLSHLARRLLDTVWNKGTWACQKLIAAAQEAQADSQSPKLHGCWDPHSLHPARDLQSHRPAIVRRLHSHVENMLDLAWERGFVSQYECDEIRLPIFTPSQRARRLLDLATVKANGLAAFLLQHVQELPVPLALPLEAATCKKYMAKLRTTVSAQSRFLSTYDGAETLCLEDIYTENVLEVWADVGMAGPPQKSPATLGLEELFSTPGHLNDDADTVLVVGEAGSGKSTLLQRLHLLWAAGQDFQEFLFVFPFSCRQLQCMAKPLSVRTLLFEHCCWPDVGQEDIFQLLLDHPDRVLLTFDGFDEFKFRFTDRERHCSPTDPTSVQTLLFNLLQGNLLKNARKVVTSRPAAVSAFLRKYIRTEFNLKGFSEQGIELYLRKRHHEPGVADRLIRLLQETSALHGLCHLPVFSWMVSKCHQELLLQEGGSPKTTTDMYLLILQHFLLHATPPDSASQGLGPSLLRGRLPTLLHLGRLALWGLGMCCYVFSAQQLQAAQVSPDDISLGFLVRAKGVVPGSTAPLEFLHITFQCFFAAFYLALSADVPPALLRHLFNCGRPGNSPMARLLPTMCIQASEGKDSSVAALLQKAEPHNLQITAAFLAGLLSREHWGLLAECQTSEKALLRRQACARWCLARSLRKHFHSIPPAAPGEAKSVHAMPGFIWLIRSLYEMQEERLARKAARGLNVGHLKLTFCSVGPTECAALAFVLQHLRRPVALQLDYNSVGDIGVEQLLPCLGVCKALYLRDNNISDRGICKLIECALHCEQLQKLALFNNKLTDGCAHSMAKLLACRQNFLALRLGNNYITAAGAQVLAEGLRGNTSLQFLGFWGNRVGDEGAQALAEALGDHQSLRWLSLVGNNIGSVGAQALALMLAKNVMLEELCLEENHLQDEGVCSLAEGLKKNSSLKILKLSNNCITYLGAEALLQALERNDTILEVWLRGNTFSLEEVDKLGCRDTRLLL
# Sequence of Tumor necrosis factor (P01375 whole entry): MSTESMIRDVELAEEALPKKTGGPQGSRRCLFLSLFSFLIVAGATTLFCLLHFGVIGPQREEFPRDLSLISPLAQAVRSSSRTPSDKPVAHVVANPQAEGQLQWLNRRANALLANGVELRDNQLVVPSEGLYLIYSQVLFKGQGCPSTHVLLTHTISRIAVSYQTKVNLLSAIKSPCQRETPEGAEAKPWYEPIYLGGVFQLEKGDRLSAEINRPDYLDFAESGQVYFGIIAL
# Sequence of Beta-galactosidase (Q8VNN2 whole entry, the tested form may be a part): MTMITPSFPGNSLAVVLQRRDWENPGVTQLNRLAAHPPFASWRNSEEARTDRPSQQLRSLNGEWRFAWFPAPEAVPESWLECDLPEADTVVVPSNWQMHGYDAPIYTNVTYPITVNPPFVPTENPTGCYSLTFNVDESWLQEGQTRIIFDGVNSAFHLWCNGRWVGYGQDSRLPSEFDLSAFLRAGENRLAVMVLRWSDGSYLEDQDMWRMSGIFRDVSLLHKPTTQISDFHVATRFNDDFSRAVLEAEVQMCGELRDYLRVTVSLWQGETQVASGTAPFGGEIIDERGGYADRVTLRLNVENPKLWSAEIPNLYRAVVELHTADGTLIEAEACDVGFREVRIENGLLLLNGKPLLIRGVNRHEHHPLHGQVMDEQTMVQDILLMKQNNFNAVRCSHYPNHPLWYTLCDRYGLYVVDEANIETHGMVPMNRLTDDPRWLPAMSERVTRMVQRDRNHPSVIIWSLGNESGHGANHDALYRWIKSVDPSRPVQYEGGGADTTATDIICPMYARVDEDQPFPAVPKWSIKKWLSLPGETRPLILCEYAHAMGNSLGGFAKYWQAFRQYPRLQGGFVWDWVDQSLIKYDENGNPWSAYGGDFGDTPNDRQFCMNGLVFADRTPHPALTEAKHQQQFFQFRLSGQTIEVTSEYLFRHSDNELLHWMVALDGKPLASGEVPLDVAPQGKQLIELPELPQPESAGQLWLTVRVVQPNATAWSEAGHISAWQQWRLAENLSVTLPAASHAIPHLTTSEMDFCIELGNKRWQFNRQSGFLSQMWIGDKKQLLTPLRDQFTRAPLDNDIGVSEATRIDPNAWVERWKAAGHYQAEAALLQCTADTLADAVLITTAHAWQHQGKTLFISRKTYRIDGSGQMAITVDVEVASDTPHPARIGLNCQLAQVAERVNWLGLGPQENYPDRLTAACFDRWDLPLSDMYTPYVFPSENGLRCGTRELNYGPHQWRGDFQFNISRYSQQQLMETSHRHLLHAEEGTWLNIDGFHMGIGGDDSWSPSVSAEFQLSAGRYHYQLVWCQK
# Sequence of Large T antigen (P03070 whole entry, the tested form may be a part): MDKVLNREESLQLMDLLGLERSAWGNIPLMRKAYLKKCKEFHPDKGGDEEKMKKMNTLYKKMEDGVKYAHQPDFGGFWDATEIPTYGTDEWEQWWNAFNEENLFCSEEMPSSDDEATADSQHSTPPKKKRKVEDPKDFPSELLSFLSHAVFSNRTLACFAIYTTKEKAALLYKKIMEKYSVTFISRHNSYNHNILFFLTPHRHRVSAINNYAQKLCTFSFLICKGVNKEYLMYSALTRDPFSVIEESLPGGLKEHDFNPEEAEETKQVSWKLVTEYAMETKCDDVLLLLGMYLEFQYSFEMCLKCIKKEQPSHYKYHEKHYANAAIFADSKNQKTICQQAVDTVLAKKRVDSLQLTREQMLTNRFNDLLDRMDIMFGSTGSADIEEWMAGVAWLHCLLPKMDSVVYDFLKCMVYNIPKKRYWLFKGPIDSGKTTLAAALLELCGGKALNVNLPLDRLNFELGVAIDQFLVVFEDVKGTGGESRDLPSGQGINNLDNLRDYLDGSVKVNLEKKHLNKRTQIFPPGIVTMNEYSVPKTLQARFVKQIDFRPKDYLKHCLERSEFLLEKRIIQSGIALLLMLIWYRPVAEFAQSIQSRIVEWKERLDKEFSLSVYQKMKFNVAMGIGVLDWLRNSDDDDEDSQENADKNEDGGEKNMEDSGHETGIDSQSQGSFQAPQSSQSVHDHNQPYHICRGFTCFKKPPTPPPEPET
# Sequence of Genome polyprotein (P29990 2492-3391 limits assumed): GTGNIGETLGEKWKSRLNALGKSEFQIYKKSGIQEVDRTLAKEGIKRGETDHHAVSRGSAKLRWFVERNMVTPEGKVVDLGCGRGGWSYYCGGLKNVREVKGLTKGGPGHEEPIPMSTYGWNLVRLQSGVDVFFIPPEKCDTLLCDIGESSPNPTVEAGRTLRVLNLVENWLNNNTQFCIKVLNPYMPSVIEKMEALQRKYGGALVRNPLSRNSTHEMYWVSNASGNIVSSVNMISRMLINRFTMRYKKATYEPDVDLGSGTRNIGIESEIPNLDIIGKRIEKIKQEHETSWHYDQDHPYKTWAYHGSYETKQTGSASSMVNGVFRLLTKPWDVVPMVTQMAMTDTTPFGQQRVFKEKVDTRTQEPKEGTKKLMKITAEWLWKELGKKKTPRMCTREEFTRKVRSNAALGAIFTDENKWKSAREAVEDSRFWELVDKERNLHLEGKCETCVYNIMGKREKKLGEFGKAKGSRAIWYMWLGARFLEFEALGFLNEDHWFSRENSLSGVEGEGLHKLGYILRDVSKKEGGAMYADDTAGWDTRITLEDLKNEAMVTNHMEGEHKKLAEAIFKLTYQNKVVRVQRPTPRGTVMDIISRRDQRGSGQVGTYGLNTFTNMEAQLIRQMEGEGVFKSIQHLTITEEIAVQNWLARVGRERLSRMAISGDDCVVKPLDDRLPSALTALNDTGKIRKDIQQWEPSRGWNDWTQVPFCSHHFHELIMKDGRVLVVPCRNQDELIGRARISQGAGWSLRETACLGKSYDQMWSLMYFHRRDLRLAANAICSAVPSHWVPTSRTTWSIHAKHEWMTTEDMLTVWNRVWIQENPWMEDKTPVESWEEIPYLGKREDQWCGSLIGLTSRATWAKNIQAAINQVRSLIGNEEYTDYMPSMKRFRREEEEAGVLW
structure (smiles),measurement,setting,value
O=c1c2cc(N3CCOCC3)ccc2[nH]c(=S)n1CCCN1CCCCCC1,IC50,[1],88 µM (inactive)
Nc1ccc(OCC(O)C[n+]2ccc(CCS(=O)(=O)[O-])cc2)cc1 (stereo not drawn),IC50,[2],17.9 µM (active)
CC1(C)Cc2c(sc(NC(=O)C(=O)N3CCCCC3)c2C(=O)O)CO1,IC50,[3],> 20 µM (inactive)
same,IC50,[4],> 20 µM (inactive)
same,IC50,[5],> 20 µM (inactive)
same,IC50,[6],> 20 µM (inactive)
O=C(CN1C(=O)/C(=C2/SC(=S)N(CCS(=O)(=O)O)C2=O)c2ccccc21)Nc1cccc(C(F)(F)F)c1,IC50,[7],35.3 µM (active)
same,IC50,[8],> 66.6 µM (inactive)
same,IC50,[9],2.41 µM (active)
C=CCn1c(SCc2cc(=O)n3ccsc3n2)nnc1C1CCCCC1,IC50,[1],61.5 µM (inactive)
Cc1cnc(C(=O)NNC(=O)c2ccc(Br)cc2)cn1,CC50,[10],14.6 µM (active)
same,CC50,[11],26.3 µM (active)
same,IC50,[12],23.2 µM (active)
same,EC50,[13],> 300 µM (not active)
same,CC50,[14],> 20 µM (active)
same,EC50,[15],9.68 µM (active)
CC1(C)Cc2c(sc(NC(=O)c3ccccc3)c2C(=O)O)CO1,IC50,[3],> 20 µM (inactive)
same,IC50,[4],> 20 µM (inactive)
same,IC50,[5],> 20 µM (inactive)
same,IC50,[6],> 20 µM (inactive)
CC1=CC(C)(C)N(C(=O)c2ccc(F)cc2)c2cc3c(cc21)OCO3,Absolute IC50 (XBP1),[16],10 µM
CCN(CC)Cc1ccc(NC(=O)c2sc3cc(Cl)ccc3c2Cl)cc1,CC50,[10],18.9 µM (active)
same,IC50,[17],26.3 µM (active)
same,CC50,[11],19.9 µM (active)
same,IC50,[12],32.9 µM (active)
same,EC50,[18],3.87 µM (active)
same,CC50,[14],11.7 µM (active)
same,EC50,[19],16.8 µM (inconclusive)
CC(=O)Nc1nc2ccccc2n1S(=O)(=O)c1ccc(Cl)cc1,IC50,[3],> 20 µM (inactive)
same,IC50,[4],4.56 µM (active)
same,IC50,[5],> 20 µM (inactive)
same,IC50,[6],> 20 µM (inactive)
O=[N+]([O-])c1ccc(-c2nn(-c3ccccc3)cc2/C=N/n2c(S)nnc2-c2cccs2)cc1,Absolute IC50 (XBP1),[16],10 µM
C/C(=N/NC(=S)Nc1ccccc1)c1ccc2c(c1)OCO2,IC50,[8],> 66.6 µM (inactive)
C/C(=N\Nc1nc2ccccc2[nH]1)c1cc2ccccc2o1,CC50,[10],> 20 µM (active)
same,CC50,[11],> 40 µM (active)
same,IC50,[12],1.28 µM (active)
COc1cc(/C=N/NC(=O)NC2CCCCC2)ccc1O,IC50,[2],7.16 µM (active)
